From PubChem BioAssay (NCI)
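Protocol summary: plate cells (96-well), add compound at 5 concentrations, incubate 48 h, interpolate endpoints linearly. GI50: concentration for 50% inhibition of growth. TGI is the concentration that stops growth completely.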

Legend:
Assay in all cases: NCI anticancer screen, dose series, 48 h
[1] = tested on: TK-10 renal
[2] = tested on: SK-MEL-28 melanoma
[3] = tested on: SK-MEL-2 melanoma
[4] = tested on: BT-549 breast
[5] = tested on: EKVX NSCLC
[6] = tested on: HS 578T breast
[7] = tested on: 786-0 renal
[8] = tested on: CAKI-1 renal
[9] = tested on: MCF7 breast
[10] = tested on: SF-539 CNS

| SMILES | GI50 [1] [µM] | TGI [1] [µM] | GI50 [2] [µM] | TGI [2] [µM] | GI50 [3] [µM] | GI50 [4] [µM] | TGI [4] [µM] | GI50 [5] [µM] | TGI [5] [µM] | GI50 [6] [µM] | TGI [6] [µM] | GI50 [7] [µM] | TGI [7] [µM] | GI50 [8] [µM] | TGI [8] [µM] | GI50 [9] [µM] | TGI [9] [µM] | GI50 [10] [µM] | TGI [10] [µM] | TGI [3] [µM] |
| --- | --- | --- | --- | --- | --- | --- | --- | --- | --- | --- | --- | --- | --- | --- | --- | --- | --- | --- | --- | --- |
| CO[C@@H]1/C=C(C)/C=C/[C@@H](C)/C=C(\C)C(=O)OC(/C(C)=C/C=C(\C)CNC(=O)[C@H](CO)NC=O)[C@@H](C)/C=C/C=C/[C@H](OC)CC/C=C(C)/C=C/C1 (some centres undefined) | < 0.005 | 0.236 | 0.00843 | 11.4 | < 0.005 | < 0.005 | 12.1 | 5.56 | 15.6 | < 0.005 | 24.9 | < 0.005 | 0.322 | < 0.005 | 0.592 | < 0.005 | 9.14 | < 0.005 | 0.199 | – |
| Cc1c2c[n+](C(C)C)ccc2c(C)c2c1[nH]c1ccccc12 | 21.1 | > 100 | 2.25 | 12.9 | 2.89 | 1.72 | 11.2 | 3.51 | 53.9 | 1.13 | 19 | 1.53 | > 100 | > 100 | > 100 | 1.85 | 14.8 | 1.62 | 16.4 | 9.81 |
